One test deals with T1, LZK (Homo sapiens, UniProt O43283).
T1 construct: 10 nM LZK, catalytic domain, Carna Biosiences in assay buffer; purchased Carna Biosciences ('Carna Biosiences' [sic])
T1 sequence (O43283 168-409 limits assumed): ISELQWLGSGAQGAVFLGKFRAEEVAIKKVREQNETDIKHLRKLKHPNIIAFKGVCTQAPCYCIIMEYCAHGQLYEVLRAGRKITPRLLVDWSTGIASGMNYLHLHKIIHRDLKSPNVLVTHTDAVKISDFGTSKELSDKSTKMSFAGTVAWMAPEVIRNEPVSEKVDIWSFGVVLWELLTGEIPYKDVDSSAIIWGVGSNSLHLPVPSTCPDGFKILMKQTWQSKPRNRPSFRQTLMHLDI
Description: LZK biochemical assay (TR-FRET, MKK7 phosphorylation). A digest of the protocol:
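LZK catalytic domain (10 nM) phosphorylates His-MKK7 (15 nM) with 15 µM ATP, all final, for 90 min at RT in HEPES buffer pH 7.5 with MgCl2. Phospho-T275/S277 detected by TR-FRET (Eu anti-phospho donor, XL665 anti-His acceptor) after 16 h at 32 °C in EDTA stop buffer. Inhibition lowers the 665/Eu ratio.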
For orientation: In TR-FRET formats the signal depends on donor and acceptor labels being close together.

The target of a further test is T2, DLK (Homo sapiens, UniProt Q12852).
T2 construct: 10 nM DLK, catalytic domain, Carna Biosiences; purchased Carna Biosciences ('Carna Biosiences' [sic])
T2 sequence (Q12852 125-366 limits assumed): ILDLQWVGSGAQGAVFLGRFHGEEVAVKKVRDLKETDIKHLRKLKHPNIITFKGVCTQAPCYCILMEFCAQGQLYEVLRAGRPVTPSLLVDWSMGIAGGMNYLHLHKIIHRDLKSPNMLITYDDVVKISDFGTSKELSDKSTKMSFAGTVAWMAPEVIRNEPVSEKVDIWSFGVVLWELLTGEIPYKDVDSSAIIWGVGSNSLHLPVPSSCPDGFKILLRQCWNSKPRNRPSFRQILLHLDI
In words: DLK biochemical assay (TR-FRET, MKK7 phosphorylation). The essentials: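 DLK catalytic domain (10 nM) phosphorylates His-MKK7 (15 nM) at 60 μM ATP for 90 min at RT in pH 7.5 Hepes buffer (final concentrations). Phospho-T275/S277 is detected by TR-FRET (Eu anti-phospho donor, XL665 anti-His acceptor) after 16 h at 37° C (1536 format) or 4° C (384 format).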

Regarding `Nc1nc2c(-c3ccc(=O)n(CC(F)F)c3)cc(-c3cnn(C(c4ccc(C(F)(F)F)nc4)C4CCOCC4)c3)cn2n1` (single isomer, unassigned) [II-157, 5-[2-Amino-6-(1-{tetrahydro-2H-pyran-4-yl[6-(trifluoromethyl)pyridin-3-yl]methyl}-1H-pyrazol-4-yl)[1,2,4]triazolo[1,5-a]pyridin-8-yl]-1-(2,2-difluoroethyl)pyridin-2(1H)-one], the IC50 at LZK came out at 12 nM; at DLK, 5.9 nM.

With `CC(n1cc(-c2cc(-c3cnn(Cc4ccccc4)c3)cc3nc(N)nn23)cn1)C(F)(F)F` (stereo not shown) [II-122], the IC50 at LZK was found to be 37 nM; against DLK, 39 nM.

Regarding `Nc1nc2c(-c3cnn(CC(F)(F)F)c3)cc(-c3cnn(C(c4ccc(C(F)(F)F)nc4)C4CCOCC4)c3)cn2n1` (single isomer, unassigned) [II-118, 6-(1-{Tetrahydro-2H-pyran-4-yl[6-(trifluoromethyl)pyridin-3-yl]methyl}-1H-pyrazol-4-yl)-8-[1-(2,2,2-trifluoroethyl)-1H-pyrazol-4-yl][1,2,4]triazolo[1,5-a]pyridin-2-amine], the IC50 stood at 2.6 nM against LZK and 0.6 nM against DLK.

Consider `Nc1nc2cc(-c3cnn(C(c4ccc(C(F)(F)F)nc4)C4CCOCC4)c3)cc(-c3ccc(=O)n(C(F)F)c3)n2n1` (single isomer, unassigned) [II-184, 5-[2-Amino-7-(1-{tetrahydro-2H-pyran-4-yl[6-(trifluoromethyl)pyridin-3-yl]methyl}-1H-pyrazol-4-yl)[1,2,4]triazolo[1,5-a]pyridin-5-yl]-1-(difluoromethyl)pyridin-2(1H)-one], for which the IC50 on LZK was 2.4 nM; against DLK, 1.2 nM.

As to `CC[C@@H](c1ccccc1)n1cc(-c2cc(-c3cnn(CC)c3)c3nc(N)nn3c2)cn1` [II-91, 8-(1-Ethyl-1H-pyrazol-4-yl)-6-{1-[(1S)-1-phenylpropyl]-1H-pyrazol-4-yl}[1,2,4]triazolo[1,5-a]pyridin-2-amine], the IC50 amounted to 115 nM against LZK and 5.2 nM on DLK.

As to `CCS(=O)(=O)c1cccc(-c2cc(-c3cnn(C(c4ccc(C(F)(F)F)nc4)C4CCOCC4)c3)cn3nc(N)nc23)c1` (single isomer, unassigned) [II-17, 8-[3-(Ethylsulfonyl)phenyl]-6-(1-{tetrahydro-2H-pyran-4-yl[6-(trifluoromethyl)pyridin-3-yl]methyl}-1H-pyrazol-4-yl)[1,2,4]triazolo[1,5-a]pyridin-2-amine], the IC50 is 11 nM against LZK and 2.1 nM at DLK.

On to `COc1cc(C(C(C)C)n2cc(-c3cc(-c4cnn(CC(F)(F)F)c4)n4nc(N)nc4c3)cn2)ccn1` (single isomer, unassigned) [II-137, 7-{1-[1-(2-Methoxypyridin-4-yl)-2-methylpropyl]-1H-pyrazol-4-yl}-5-[1-(2,2,2-trifluoroethyl)-1H-pyrazol-4-yl][1,2,4]triazolo[1,5-a]pyridin-2-amine], for which the IC50 on LZK is 720 nM; against DLK it was 40 nM.

Turning to `CC(C)C(c1ccc(C(F)(F)F)nc1)n1cc(-c2cc(-c3cnc(OCC(F)(F)F)nc3)n3nc(N)nc3c2)cn1` (racemic) [II-85, 7-(1-{2-Methyl-1-[6-(trifluoromethyl)pyridin-3-yl]propyl}-1H-pyrazol-4-yl)-5-[2-(2,2,2-trifluoroethoxy)pyrimidin-5-yl][1,2,4]triazolo[1,5-a]pyridin-2-amine], the IC50 on LZK was found to be 320 nM; against DLK, 230 nM.

`Nc1nc2cc(-c3cnn(C(c4ccc(C(F)F)nc4)C4CCOCC4)c3)cc(-c3ccc(C(F)(F)F)nc3)n2n1` (racemic) [II-76, 7-(1-{[6-(Difluoromethyl)pyridin-3-yl](tetrahydro-2H-pyran-4-yl)methyl}-1H-pyrazol-4-yl)-5-[6-(trifluoromethyl)pyridin-3-yl][1,2,4]triazolo[1,5-a]pyridin-2-amine]: the IC50 worked out at 16 nM against LZK and 21 nM on DLK.

Consider `Nc1nc2cc(-c3cnn(C4CCN(C5COC5)CC4)c3)cc(-c3ccc(C4CC4)nc3)n2n1` [II-83, 5-(6-Cyclopropylpyridin-3-yl)-7-{1-[1-(oxetan-3-yl)piperidin-4-yl]-1H-pyrazol-4-yl}[1,2,4]triazolo[1,5-a]pyridin-2-amine], for which the IC50 on LZK is 110 nM; against DLK, 210 nM.

For the molecule `CCC(c1ccc(C(F)(F)F)nc1)n1cc(-c2cc(-c3ccc(=O)n(CC(F)(F)F)c3)n3nc(N)nc3c2)cn1` (stereo not shown) [II-188], the IC50 on LZK was found to be 10 nM; at DLK, 7.1 nM.

Consider `CC(C)C(c1ccc(C(F)F)nc1)n1cc(-c2cc(-c3ccc(C4CC4)nc3)n3nc(N)nc3c2)cn1` (racemic) [II-52, 5-(6-Cyclopropylpyridin-3-yl)-7-(1-{1-[6-(difluoromethyl)pyridin-3-yl]-2-methylpropyl}-1H-pyrazol-4-yl)[1,2,4]triazolo[1,5-a]pyridin-2-amine], for which the IC50 was found to be 19 nM against LZK and 6 nM against DLK.

Turning to `CC(C)C(c1ccc(C(F)(F)F)nc1)n1cc(-c2cc(-c3cnn(CC(F)(F)F)c3)n3nc(N)nc3c2)cn1` (single isomer, unassigned) [II-141, 7-(1-{2-Methyl-1-[6-(trifluoromethyl)pyridin-3-yl]propyl}-1H-pyrazol-4-yl)-5-[1-(2,2,2-trifluoroethyl)-1H-pyrazol-4-yl][1,2,4]triazolo[1,5-a]pyridin-2-amine], the IC50 is 140 nM against LZK and 23 nM at DLK.

Consider `CCC(c1ccc(C(F)F)nc1)n1cc(-c2cc(-c3ccc(C4CC4)nc3)n3nc(N)nc3c2)cn1` (single isomer, unassigned) [II-69, 5-(6-Cyclopropylpyridin-3-yl)-7-(1-{1-[6-(difluoromethyl)pyridin-3-yl]propyl}-1H-pyrazol-4-yl)[1,2,4]triazolo[1,5-a]pyridin-2-amine], for which the IC50 came to 9.4 nM against LZK and 4.8 nM at DLK.

With `Nc1nc2cc(-c3cnn(C(c4ccc(C(F)(F)F)nc4)C4CCOCC4)c3)cc(-c3cnn(CC(F)(F)F)c3)n2n1` (single isomer, unassigned) [II-151, 7-(1-{Tetrahydro-2H-pyran-4-yl[6-(trifluoromethyl)pyridin-3-yl]methyl}-1H-pyrazol-4-yl)-5-[1-(2,2,2-trifluoroethyl)-1H-pyrazol-4-yl][1,2,4]triazolo[1,5-a]pyridin-2-amine], the half-maximal inhibitory concentration (IC50) at LZK and at DLK was 11 nM in each case.

Regarding `Nc1nc2c(-c3ccc(C(F)(F)F)nc3)cc(-c3cnn(C4CCN(C5COC5)CC4)c3)cn2n1` [II-46, 6-{1-[1-(Oxetan-3-yl)piperidin-4-yl]-1H-pyrazol-4-yl}-8-[6-(trifluoromethyl)pyridin-3-yl][1,2,4]triazolo[1,5-a]pyridin-2-amine], the IC50 was determined as 380 nM against LZK and 750 nM at DLK.

For the molecule `C[C@@H](CO)c1nnc(-c2cc(-c3cnn(Cc4cccc5cn[nH]c45)c3)cn3nc(N)nc23)s1` [II-199, (2S)-2-(5-{2-Amino-6-[1-(1H-indazol-7-ylmethyl)-1H-pyrazol-4-yl][1,2,4]triazolo[1,5-a]pyridin-8-yl}-1,3,4-thiadiazol-2-yl)propan-1-ol], the IC50 was 410 nM at LZK and 12 nM at DLK.

Broadly, the IC50 is the midpoint of a concentration-inhibition curve.

Source of the values: US20230086702A1, “SUBSTITUTED 2-AMINO-PYRAZOLYL-[1,2,4]TRIAZOLO[1,5A]PYRIDINE DERIVATIVES AND USE THEREOF” (The Johns Hopkins University, priority 2019, published 2023).
